Consider twelve molecules from PubChem BioAssay (NCI).

Some test systems named below: RPMI-8226 leukemia; U251 CNS; SF-539 CNS; HOP-92 NSCLC; SF-295 CNS; NCI/ADR-RES ovarian; SF-268 CNS; SN12C renal; OVCAR-4 ovarian; UACC-257 melanoma.
Holding throughout (test): inhibition of tumour cell growth, NCI panel, 48 h

Structures are written as SMILES.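 Five concentrations, 48 hours, 96-well plates. Abbreviation: GI50, concentration required for 50% inhibition of growth. TGI is the concentration that stops growth completely.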 A value given as a limit tells only on which side of the number the result lay.

`O=C(/C=C/c1ccc([N+](=O)[O-])cc1)c1ccc2c3c(cccc13)CC2`: the GI50 in the experiment with RPMI-8226 leukemia is 1.64 µM; in the experiment with U251 CNS, 2.65 µM; in the experiment on SF-539 CNS, 2.63 µM; in the experiment on HOP-92 NSCLC it was 2.43 µM; in the experiment with SF-295 CNS, 6.23 µM; with NCI/ADR-RES ovarian it was 20.8 µM. Besides, the GI50 in the experiment with SF-268 CNS was 8.18 µM; in the experiment on SN12C renal it was greater than 34.6 µM; in the experiment with OVCAR-4 ovarian, 13.5 µM; in the experiment with UACC-257 melanoma, greater than 46 µM. The TGI in the experiment with RPMI-8226 leukemia is 4.84 µM; in the experiment with U251 CNS, greater than 29.6 µM; in the experiment with SF-539 CNS, 7.72 µM; in the experiment on HOP-92 NSCLC, 15.4 µM; in the experiment with SF-295 CNS, greater than 100 µM; with NCI/ADR-RES ovarian, greater than 100 µM. Also, the TGI in the experiment on SF-268 CNS was greater than 100 µM; in the experiment on SN12C renal, greater than 100 µM; in the experiment on OVCAR-4 ovarian, greater than 100 µM; in the experiment with UACC-257 melanoma, greater than 94.4 µM.
For `CC1=C(CO)C(=O)O[C@@H]([C@@H](C)[C@H]2CC[C@H]3[C@@H]4C[C@@H](O)[C@@]5(O)CC=CC(=O)[C@]5(C)[C@H]4CC[C@]23C)C1`, the TGI is 92.2 µM in the experiment on RPMI-8226 leukemia; greater than 100 µM in the experiment with U251 CNS; greater than 100 µM in the experiment with SF-539 CNS; greater than 100 µM in the experiment on HOP-92 NSCLC; greater than 100 µM in the experiment with SF-295 CNS; 64.2 µM in the experiment with NCI/ADR-RES ovarian. Besides, the TGI with SF-268 CNS, with SN12C renal, in the experiment with OVCAR-4 ovarian and in the experiment with UACC-257 melanoma was greater than 100 µM throughout.
With `CCc1ccc(NC(=O)COC(=O)c2cc([N+](=O)[O-])ccc2Sc2nnnn2C)cc1`, the GI50 in the experiment with RPMI-8226 leukemia was 6.73 µM; with U251 CNS it was 15.4 µM; in the experiment with SF-539 CNS, 16.7 µM; in the experiment with HOP-92 NSCLC it was 22.8 µM; with SF-295 CNS, 17.5 µM; in the experiment with NCI/ADR-RES ovarian, 5.66 µM. The GI50 in the experiment on SF-268 CNS is 14.5 µM; in the experiment on SN12C renal it was 33.2 µM; with OVCAR-4 ovarian it was 12.9 µM; in the experiment with UACC-257 melanoma, 19.3 µM. Also, the TGI in the experiment with RPMI-8226 leukemia came to 41.4 µM; in the experiment with U251 CNS, 34.1 µM; in the experiment with SF-539 CNS it was 42.8 µM; in the experiment with HOP-92 NSCLC, 82.7 µM; in the experiment with SF-295 CNS, 49.4 µM; with NCI/ADR-RES ovarian, 47.2 µM. Besides, the TGI was 70.7 µM in the experiment with SF-268 CNS, greater than 100 µM in the experiment on SN12C renal, 26.9 µM in the experiment with OVCAR-4 ovarian and 61.2 µM with UACC-257 melanoma.
Turning to `Cn1cc(C2=C(c3cccc(OCC(O)CO)c3)C(=O)NC2=O)c2ccccc21` (stereo not given), the GI50 with RPMI-8226 leukemia, in the experiment on U251 CNS, in the experiment on SF-539 CNS, with HOP-92 NSCLC, with SF-295 CNS and with NCI/ADR-RES ovarian was greater than 25 µM throughout. Moreover, the GI50 in the experiment with SF-268 CNS, in the experiment with SN12C renal, in the experiment on OVCAR-4 ovarian and in the experiment on UACC-257 melanoma was greater than 25 µM in each case. Besides, the TGI in the experiment on RPMI-8226 leukemia, with U251 CNS, in the experiment on SF-539 CNS, in the experiment on HOP-92 NSCLC, with SF-295 CNS and in the experiment on NCI/ADR-RES ovarian was greater than 25 µM throughout. In addition, the TGI with SF-268 CNS, in the experiment on SN12C renal, in the experiment on OVCAR-4 ovarian and in the experiment with UACC-257 melanoma was greater than 25 µM each time.
`O=[N+]([O-])c1cccc([As]=[As]c2cccc([N+](=O)[O-])c2)c1` (stereo not given): the GI50 in the experiment on RPMI-8226 leukemia is 0.0495 µM; with U251 CNS, 0.103 µM; in the experiment with SF-539 CNS, 0.0737 µM; in the experiment on HOP-92 NSCLC, 0.0433 µM; in the experiment on SF-295 CNS, 0.178 µM; in the experiment with NCI/ADR-RES ovarian it was 0.182 µM. For the same molecule, the GI50 in the experiment on SF-268 CNS is 0.0819 µM; in the experiment on SN12C renal, 0.11 µM; with OVCAR-4 ovarian, 0.0921 µM; in the experiment with UACC-257 melanoma it was 0.122 µM. In addition, the TGI with RPMI-8226 leukemia was 0.18 µM; in the experiment on U251 CNS, 0.22 µM; in the experiment with SF-539 CNS, 0.201 µM; with HOP-92 NSCLC, 0.173 µM; in the experiment with SF-295 CNS it was 0.34 µM; with NCI/ADR-RES ovarian, 0.447 µM. Moreover, the TGI in the experiment with SF-268 CNS was 0.228 µM; in the experiment with SN12C renal, 0.239 µM; in the experiment on OVCAR-4 ovarian it was 0.308 µM; with UACC-257 melanoma, 0.252 µM.
In the case of `O=C(Nc1cccc(NC(=O)Nc2cc(C(F)(F)F)ccc2Cl)c1)Nc1cc(C(F)(F)F)ccc1Cl`, the GI50 was 1.87 µM in the experiment with RPMI-8226 leukemia; 1.93 µM in the experiment on U251 CNS; 6.15 µM with SF-539 CNS; 1.99 µM in the experiment with HOP-92 NSCLC; 1.59 µM in the experiment on SF-295 CNS; 3.01 µM with NCI/ADR-RES ovarian. The GI50 was 5.19 µM in the experiment with SF-268 CNS, 2.56 µM with SN12C renal, 0.746 µM with OVCAR-4 ovarian and 4.29 µM with UACC-257 melanoma. Further, the TGI in the experiment on RPMI-8226 leukemia is 50.7 µM; in the experiment on U251 CNS it was 7.91 µM; with SF-539 CNS, 32 µM; with HOP-92 NSCLC, 5.06 µM; with SF-295 CNS, 12.2 µM; with NCI/ADR-RES ovarian it was 17.7 µM. Moreover, the TGI amounted to 34.2 µM with SF-268 CNS, 23.9 µM with SN12C renal, 3.61 µM in the experiment on OVCAR-4 ovarian and 41.4 µM in the experiment on UACC-257 melanoma.
Regarding `CCN(CC)Cc1ccc(Nc2nccc(-c3cnn4ncccc34)n2)cc1`, the GI50 is 0.0749 µM in the experiment on RPMI-8226 leukemia; 0.014 µM in the experiment with U251 CNS; 0.00973 µM in the experiment on SF-539 CNS; 0.00833 µM in the experiment with HOP-92 NSCLC; 0.0311 µM in the experiment with SF-295 CNS; 0.032 µM with NCI/ADR-RES ovarian. The GI50 in the experiment on SF-268 CNS was 0.0145 µM; with SN12C renal, 0.0141 µM; in the experiment with OVCAR-4 ovarian, 0.0766 µM; with UACC-257 melanoma, 0.0443 µM. The TGI with RPMI-8226 leukemia is 1.76 µM; in the experiment on U251 CNS, greater than 25 µM; with SF-539 CNS, 0.0781 µM; in the experiment with HOP-92 NSCLC, 0.0977 µM; in the experiment on SF-295 CNS it was greater than 25 µM; in the experiment with NCI/ADR-RES ovarian, greater than 25 µM. The TGI is 0.607 µM with SF-268 CNS, greater than 25 µM in the experiment on SN12C renal, 9.99 µM in the experiment on OVCAR-4 ovarian and 0.143 µM in the experiment on UACC-257 melanoma.
Regarding `C1CN(SSN2CCOCC2)CCO1`, the GI50 is 27.4 µM in the experiment with RPMI-8226 leukemia; 33.6 µM with U251 CNS; 24.3 µM in the experiment on SF-539 CNS; 15.7 µM in the experiment on HOP-92 NSCLC; 32.4 µM in the experiment with SF-295 CNS; 35.3 µM in the experiment with NCI/ADR-RES ovarian. Besides, the GI50 is 47.6 µM in the experiment on SF-268 CNS, 26.6 µM with SN12C renal, 39.6 µM in the experiment with OVCAR-4 ovarian and 62.8 µM with UACC-257 melanoma. Besides, the TGI with RPMI-8226 leukemia is greater than 100 µM; in the experiment on U251 CNS it was greater than 100 µM; in the experiment with SF-539 CNS, 80.7 µM; in the experiment with HOP-92 NSCLC it was 89.2 µM; in the experiment with SF-295 CNS, greater than 100 µM; in the experiment on NCI/ADR-RES ovarian it was greater than 100 µM. Moreover, the TGI in the experiment with SF-268 CNS was greater than 100 µM; in the experiment on SN12C renal, 77.8 µM; with OVCAR-4 ovarian, greater than 100 µM; in the experiment on UACC-257 melanoma it was greater than 100 µM.
Take `COc1cc(/C=C2\Sc3scc(-c4cccc([N+](=O)[O-])c4)[n+]3C2=O)cc(OC)c1OC`: the TGI in the experiment with RPMI-8226 leukemia was 22.7 µM; with U251 CNS it was 26.3 µM; in the experiment with SF-539 CNS, 24.2 µM; in the experiment on HOP-92 NSCLC, 73.9 µM; with SF-295 CNS, 39.5 µM; in the experiment with NCI/ADR-RES ovarian, greater than 100 µM. In addition, the TGI in the experiment on SF-268 CNS was 42.1 µM; in the experiment with SN12C renal, 42.5 µM; in the experiment with OVCAR-4 ovarian it was 31.5 µM; in the experiment on UACC-257 melanoma, 25.2 µM.
Turning to `COc1c(Cl)cc(NC(=S)C#N)cc1Cl`, the TGI in the experiment with RPMI-8226 leukemia was greater than 58.7 µM; in the experiment with U251 CNS it was 43.6 µM; in the experiment on SF-539 CNS it was 59 µM; in the experiment with HOP-92 NSCLC, 48.8 µM; in the experiment with SF-295 CNS it was greater than 79.9 µM; in the experiment on NCI/ADR-RES ovarian, 54.4 µM. The TGI is greater than 89.9 µM in the experiment on SF-268 CNS, 53.5 µM in the experiment with SN12C renal, 97.9 µM in the experiment with OVCAR-4 ovarian and 53.9 µM with UACC-257 melanoma.
Regarding `C/C=C(\C)C(=O)O[C@H]1C=CC(=O)O[C@@H]1CC[C@H](O)[C@H](C)O`, the GI50 in the experiment on RPMI-8226 leukemia was 22.8 µM; in the experiment on U251 CNS it was 55.3 µM; with SF-539 CNS, 30.9 µM; with HOP-92 NSCLC it was 35 µM; in the experiment with SF-295 CNS it was greater than 100 µM; in the experiment with NCI/ADR-RES ovarian, greater than 100 µM. Besides, the GI50 with SF-268 CNS was 28.8 µM; in the experiment on SN12C renal, 47 µM; with OVCAR-4 ovarian it was 41.6 µM; in the experiment with UACC-257 melanoma, 80.9 µM. Further, the TGI with RPMI-8226 leukemia was 58.7 µM; in the experiment with U251 CNS, greater than 100 µM; in the experiment with SF-539 CNS, greater than 100 µM; in the experiment on HOP-92 NSCLC it was greater than 87.5 µM; with SF-295 CNS it was greater than 100 µM; in the experiment with NCI/ADR-RES ovarian it was greater than 100 µM. For the same molecule, the TGI in the experiment on SF-268 CNS was greater than 100 µM; with SN12C renal it was greater than 100 µM; in the experiment on OVCAR-4 ovarian, 97.5 µM; in the experiment on UACC-257 melanoma, greater than 100 µM.
With `C=C1C(=O)OC2C1C(OC(=O)/C(C)=C/C)CC(O)(CCl)C1C(O)C3OC3(C)C21O` (stereo not given), the TGI with RPMI-8226 leukemia, in the experiment with U251 CNS, in the experiment with SF-539 CNS, in the experiment with HOP-92 NSCLC, in the experiment on SF-295 CNS and with NCI/ADR-RES ovarian was greater than 50 µM throughout. The TGI in the experiment on SF-268 CNS, with SN12C renal, in the experiment on OVCAR-4 ovarian and in the experiment on UACC-257 melanoma was greater than 50 µM in each case.
